The source of these data is patent publication US8557812B2, “Small molecule inhibitors of anti-apoptotic BCL-2 family members and the uses thereof” (The Regents of the University of Michigan, priority 2004, dated 2013).

Molecules are shown by their SMILES. Where two headings read alike, the source gives them in different places.

By IC50 is commonly meant the midpoint of a concentration-inhibition curve.

The nature of data set [1]: Body weight of xenograft mice (Example 9). It is filed as in vivo. As to conditions: doses as in Example 9. The protocol: To monitor toxicity, animal body weights were measured and plotted in FIG. 10.
In another data set the test system is PC-3 xenograft. As to conditions: for Complete tumor regression: tumors regressed/total.
In the next data set the test system is MDA-MB-231 (2LMP) cells. Description: Cell growth of MDA-MB-231 (2LMP) cells (WST). It is filed as cell-based. Particulars: Homo sapiens, read-out: IC50 of cell growth inhibition.
Another data set concerns the target Bcl-2 (Homo sapiens, UniProt P10415). Description: Fluorescence polarization in vitro Bcl-2 binding assay. The method, then: Bcl-2 used in this assay is a recombinant His-fused soluble protein. […] Inc., Research Triangle Park, N.C.). […] The unlabeled Bid peptide is used as the positive control. The Ki values were calculated using our developed equation for FP assay (Nikolovska-Coleska et al., Anal. Biochem., 2004, in press). The program for calculating a Ki value is available free of charge via the Internet at http://sw16.im.med.umich.edu/software/calc_ki/.
Background: In fluorescence polarisation assays a small probe gives low polarisation when free and higher when bound to something large.

The target in another data set is human Bcl-xL (Homo sapiens, UniProt Q07817). Description: Fluorescence polarization in vitro Bcl-xL binding assay. Particulars: displacement of Flu-Bak peptide. An excerpt: For determination of the binding affinity to Bcl-xL protein a human Bcl-xL recombinant His-tagged protein without the C-terminus hydrophobic tail and the Bak-16mer BH3 peptide labeled with 6-carboxyfluorescein succinimidyl ester (FAM) were used.
Chain of human Bcl-xL (Q07817 1-209 limits assumed): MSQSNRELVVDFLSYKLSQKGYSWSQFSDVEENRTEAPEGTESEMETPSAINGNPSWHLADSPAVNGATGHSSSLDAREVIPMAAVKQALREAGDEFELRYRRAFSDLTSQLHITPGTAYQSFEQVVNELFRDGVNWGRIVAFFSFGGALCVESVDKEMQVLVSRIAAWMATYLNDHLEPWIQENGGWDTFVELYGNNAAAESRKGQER

The next data set in a line: in vivo. Particulars: female, Balb/c, mouse, iv.
The subject of data set [2] is PC-3 cells. Description: Apoptosis by Annexin V-FITC staining and flow cytometry. As to conditions: 2.5 μM, 45 hours. In kind it is cell-based, human.
In data set [3] the test system is PrEC (human normal prostate epithelial cells). Description: Caspase-3 activation in PrEC cells (flow cytometry). It is filed as cell-based. As to conditions: 48 hours. The protocol: (§1) The cells were analyzed by flow cytometry in the red channel and the results are shown as percent of cells having active caspase-3 (FIG. 5).
(In general: A flow cytometer gives signals particle by particle.)

The subject of the next data set is MDA-231 cells. Description: Cell survival with CDDP and TW-37 alone or in combination. It is filed as cell-based, human. An excerpt:
CDDP is a DNA damaging agent and can effectively induce apoptosis in MDA-231 breasted cancer cells and is also a clinically used chemotherapeutic drug for cancer.

Another data set concerns PC-3 tumor. Description: PC-3 xenograft tumor growth, single agents (Example 8). In kind it is in vivo, NCr-nu male nude mice. The protocol:
TAXOTERE (TXT) and cisplatin (CDDP) were used as positive controls. For the PC-3 tumor model, 5×10^6 PC-3 cells were injected into the flanks of NCr-nu male nude mice on both sides. The quarter-MTD and half-MTD doses, i.e., 20 and 40 mg/kg, i.v. q.d.×5 for 3 weeks was tested.

For data set [4], the system named is PC-3 cells. Briefly: Caspase-3 activation in PC-3 cells (flow cytometry). It is filed as cell-based, human. Particulars: 5 μM, 48 hours. The method, then:
as §1

Data set [5] concerns LnCap, PC-3, DU145c, 2LMP and MCF-10A cell lines. Briefly: Inhibition of cell growth in human cancer cell lines (MTT). It is filed as cell-based. Particulars: 120 h, each of LnCap, 5 days. The method, then: The cells were then incubated at 37° C. with 5% CO2 for 5 days, followed by detection of cell viability with MTT. Untreated cells were used as 100% growth.

Chain of Bcl-2 (P10415 92-205 limits assumed): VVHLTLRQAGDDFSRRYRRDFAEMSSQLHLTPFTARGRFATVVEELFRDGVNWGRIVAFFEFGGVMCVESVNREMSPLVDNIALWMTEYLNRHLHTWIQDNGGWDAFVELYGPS

Regarding `CC(=O)O[C@@]12CO[C@@H]1C[C@H](O)[C@@]1(C)C(=O)[C@H](O)C3=C(C)[C@@H](OC(=O)[C@H](O)[C@@H](NC(=O)OC(C)(C)C)c4ccccc4)C[C@@](O)([C@@H](OC(=O)c4ccccc4)[C@H]21)C3(C)C` [TAXOTERE, (2R,3S)-N-carboxy-3-phenylisoserine, N-tert-butyl ester, 13-ester with 5b-20-epoxy-12a,4,7b,10b,13a-hexahydroxytax-11-en-9-one 4-acetate 2-benzoate, trihydrate], the “body weight during treatment” value in data set [1] is “reversible body weight loss”. Further, in the data set with PC-3 xenograft (TXT 7.5 mg/kg), the “T-C (days) tumor growth delay” value is reported as 30 days, the “T/C (%) tumor growth inhibition” value was determined as 55.1%, the “activity under the NCI criteria (T/C<42%)” value (from here on “activity … (T/C<42%)”) is on record as “is not” and the Complete tumor regression was 0/10. In the data set on PC-3 xenograft (TXT 11 mg/kg), the “T-C (days) tumor growth delay” value was 32 days, the “T/C (%) tumor growth inhibition” value is 32.1%, the “activity … (T/C<42%)” value is listed as “significantly active” and the Complete tumor regression is 0/10.

Consider `CCCCCCCCCCCc1cc(C(C)C)c(O)c(O)c1O` [TM-105], for which the results for the IC50 in the data set on MDA-MB-231 (2LMP) cells, at Bcl-2 and on human Bcl-xL were 0.1 to 20 µM, above 1000 nM and above 1000 nM, respectively.

As to `CCCCCCCCCCC(=O)c1cc(C(C)C)c(O)c(O)c1O` [TM-106], the IC50 was 0.1 to 20 µM with MDA-MB-231 (2LMP) cells, above 1000 nM at Bcl-2 and above 1000 nM at human Bcl-xL.

On to `CC(C)c1cc(CCc2ccc3ccccc3c2)c(O)c(O)c1O` [TM-107], for which the IC50 in the data set with MDA-MB-231 (2LMP) cells was 0.1 to 20 µM; on Bcl-2, above 1000 nM; on human Bcl-xL, above 1000 nM.

As for `CC(C)c1cc(C(=O)Cc2ccc3ccccc3c2)c(O)c(O)c1O` [TM-108], the half-maximal inhibitory concentration (IC50) is 0.1 to 20 µM in the data set with MDA-MB-231 (2LMP) cells, above 1000 nM on Bcl-2 and above 1000 nM on human Bcl-xL.

Consider `CCCCCCCCCCCc1cc(Cc2ccccc2)c(O)c(O)c1O` [TM-121], for which the half-maximal inhibitory concentration (IC50) with MDA-MB-231 (2LMP) cells is 0.1 to 20 µM; on Bcl-2 it was at most 1000 nM; on human Bcl-xL, above 1000 nM.

Turning to `CCCCCCCCCCC(=O)c1cc(Cc2ccccc2)c(O)c(O)c1O` [TM-122], the IC50 in the data set on MDA-MB-231 (2LMP) cells is 0.1 to 20 µM; at Bcl-2 it was at most 1000 nM; at human Bcl-xL it was above 1000 nM.

Regarding `CCCCCCCCCCCc1cc(CC2CCCCC2)c(O)c(O)c1O` [TM-129], the IC50 with MDA-MB-231 (2LMP) cells is 0.1 to 20 µM; on Bcl-2, above 1000 nM; at human Bcl-xL, above 1000 nM.

`Cc1ccc(Cc2ccc(Cc3cc(CCCc4ccccc4)c(O)c(O)c3O)cc2)cc1` [TM-133]: the IC50 in the data set on MDA-MB-231 (2LMP) cells was 0.1 to 20 µM; at human Bcl-xL, above 1000 nM.

As for `O=C(c1ccc(Oc2ccccc2)cc1)c1cc(Cc2ccccc2)c(O)c(O)c1O` [TM-140], the IC50 is 0.1 to 20 µM in the data set on MDA-MB-231 (2LMP) cells and above 1000 nM on human Bcl-xL.

As to `Oc1c(Cc2ccccc2)cc(Cc2ccc(Oc3ccccc3)cc2)c(O)c1O` [TM-141], the IC50 in the data set with MDA-MB-231 (2LMP) cells is 0.1 to 20 µM; on human Bcl-xL, above 1000 nM.

For the molecule `Oc1c(Cc2ccccc2)cc(Cc2ccc(-c3ccccc3)cc2)c(O)c1O` [TM-142], the IC50 in the data set on MDA-MB-231 (2LMP) cells was 0.1 to 20 µM; at Bcl-2, above 1000 nM; on human Bcl-xL it was above 1000 nM.

As to `Cc1cc(C(=O)c2cc(Cc3ccccc3)c(O)c(O)c2O)c(C(C)C)cc1Oc1ccc([N+](=O)[O-])c(C(F)(F)F)c1` [TM-149], the IC50 in the data set on MDA-MB-231 (2LMP) cells was in the range of 0.1 to 20 µM.

On to `Cc1cc(Cc2cc(Cc3ccccc3)c(O)c(O)c2O)c(C(C)C)cc1Oc1ccc2ccccc2n1` [TM-150], for which the IC50 in the data set with MDA-MB-231 (2LMP) cells was 0.1 to 20 µM.

As for `CC(C)c1cc(Cc2cc(Cc3ccccc3)c(O)c(O)c2O)ccc1O` [TM-152], the IC50 in the data set with MDA-MB-231 (2LMP) cells was in the range of 0.1 to 20 µM.

Regarding `CC(C)c1cc(Cc2cc(Cc3ccccc3)c(O)c(O)c2O)ccc1Oc1ccc2ccccc2n1` [TM-153], the IC50 in the data set on MDA-MB-231 (2LMP) cells lay in the range of 0.1 to 20 µM.

With `CC(C)c1cc(Cc2cc(Cc3ccccc3)c(O)c(O)c2O)ccc1Oc1ccnc2ccccc12` [TM-154], in the data set with MDA-MB-231 (2LMP) cells, the IC50 lay in the range of 0.1 to 20 µM.

In the case of `CC(C)c1cc(Cc2cc(Cc3ccccc3)c(O)c(O)c2O)ccc1Oc1ccc([N+](=O)[O-])cc1C(F)(F)F` [TM-155], the half-maximal inhibitory concentration (IC50) in the data set on MDA-MB-231 (2LMP) cells was in the range of 0.1 to 20 µM.

As to `Cc1cc(Oc2ccc(Cc3cc(Cc4ccccc4)c(O)c(O)c3O)cc2C(C)C)c2ccccc2n1` [TM-156], in the data set with MDA-MB-231 (2LMP) cells, the IC50 lay within 0.1 to 20 µM.

As to `O=C(c1ccc(Oc2ccccc2)cc1)c1cc(-c2cccc3ccccc23)c(O)c(O)c1O` [TM-165], the IC50 in the data set with MDA-MB-231 (2LMP) cells was 0.1 to 20 µM; at human Bcl-xL, above 1000 nM.

As to `O=C(c1ccc(Oc2ccccc2)cc1)c1ccc(O)c(O)c1O` [TM-166], in the data set with MDA-MB-231 (2LMP) cells, the IC50 lay in the range of 0.1 to 20 µM.

Turning to `O=C(c1ccc(Oc2ccccc2)cc1)c1cc(-c2ccc3ccccc3c2)c(O)c(O)c1O` [TM-167], the half-inhibitory concentration (IC50) in the data set on MDA-MB-231 (2LMP) cells was 0.1 to 20 µM; at human Bcl-xL, above 1000 nM.

On to `O=C(c1ccc(Oc2ccccc2)cc1)c1cc(C(=O)c2cccc3ccccc23)c(O)c(O)c1O` [TM-168], for which the IC50 in the data set with MDA-MB-231 (2LMP) cells was in the range of 0.1 to 20 µM.

Consider `O=C(c1ccc(Oc2ccccc2)cc1)c1cc(C(=O)c2ccc3ccccc3c2)c(O)c(O)c1O` [TM-169], for which the IC50 is 0.1 to 20 µM in the data set with MDA-MB-231 (2LMP) cells and above 1000 nM at human Bcl-xL.

As to `O=C(c1ccc(Oc2ccccc2)cc1)c1cc(C(=O)c2ccc(Oc3ccccc3)cc2)c(O)c(O)c1O` [TM-170], the IC50 in the data set on MDA-MB-231 (2LMP) cells lay in the range of 0.1 to 20 µM.

Consider `O=C(c1ccc(Oc2ccccc2)cc1)c1cc(C(=O)c2ccc(-c3ccccc3)cc2)c(O)c(O)c1O` [TM-171], for which the figures for the IC50 in the data set on MDA-MB-231 (2LMP) cells and at human Bcl-xL were 0.1 to 20 µM and at most 1000 nM, respectively.

`CC(C)c1ccccc1Cc1cc(C(=O)Nc2ccc(S(=O)(=O)c3ccccc3C(C)(C)C)cc2)c(O)c(O)c1O` [TW-37, N-[(2-tert-Butyl-benzenesulfonyl)-phenyl]-2,3,4-trihydroxy-5-(2-isopropyl-benyl)-benzamide] showed an MTD at 3 weeks in “in vivo” of 80 mg/kg. Moreover, the “body weight during treatment” value in data set [1] is given as “no obvious body weight loss”. The apoptotic cells entry in the data set on PC-3 cells [2] is listed as “about 35%”. Further, in data set [3], the “effect on caspase-3 activation in normal prostate epithelial cells” value is listed as “no effect”. Besides, the “effect on CDDP induced cell death” value in the data set on MDA-231 cells (0.2 μM or 0.3 μM TW-37, 42 hours) is on record as “enhanced the CDDP induced cell death”. Moreover, in the data set with PC-3 xenograft (TW-37 40 mg/kg), the “T-C (days) tumor growth delay” value came out at 37 days, the “activity … (T/C<42%)” value is “significantly active” and the Complete tumor regression is 0/10. Also, the “T/C (%) tumor growth inhibition” value in the data set on PC-3 xenograft (TW-37 40 mg/kg i.v. q.d.5×3 weeks) came to 34.5%. For the same molecule, the “tumor growth compared to control” value in the data set with PC-3 xenograft (TW-37 40 mg/kg, p<0.001, two-way ANOVA, n=10) is “significantly inhibited tumor growth”. Besides, the “potency on tumor growth compared with TAXOTERE” value with PC-3 tumor (40 mg/kg TW-37 vs TXT 7.5 mg/kg i.v. once a week) is reported as “as potent as TAXOTERE”. The “inhibition of tumor growth in vivo” value in the data set on PC-3 tumor (20 and 40 mg/kg i.v. q.d.5×3 weeks) is “significantly inhibiting tumor growth in vivo”. The “cells having activated caspase-3” value in the data set with PC-3 cells [4] was “about 60%”. Also, the IC50 in [5] lay within 1000 to 5000 nM. Also, the 50% inhibitory concentration (IC50) at Bcl-2 is at most 1000 nM.

As for `N.N.[Cl][Pt][Cl]` [cisplatin, Cisplatin, reference compound], the IC50 with MDA-231 cells (CDDP alone, 42 hours) is around 750 nM.
